“Also recorded” adds a separate entry of the source. Where a SMILES comes first, the peptide text is derived from it. The star is where a group is joined. Biotin = O=C1N[C@H]2[C@H](CS[C@H]2CCCCC(=O)*)N1
Key:
spinal cord of rats [1] = assay: In vivo toxicity / biocompatibility, injections into the spinal cord, 3 days; conditions: three days after injection, versus saline
Protocol: (§1) To test if the SAPs according to the present invention show any toxicity when used in vivo we assessed the tissue reaction to multiple injections of B24 into the spinal cord of rats. All procedures involving animals were performed according to EC guidelines (EC Council Directive 86/609, 1987), to the Italian legislation on animal is experimentation (Decreto L. vo 116/92) and to protocols approved by the Animal Care and Use Committee of the University of Milan-Bicocca (IACUC 37/07).
Female Sprague-Dawley rats weighting 200-250 gr (Charles River Laboratories) were divided into two groups: 1) animals receiving injections of saline solution (control group, n=3) and 2) animals treated with B24 (n=3). In the case of long term observations (1 month) similar injections of B24 were used (n=2). Rats were anesthetized with an intraperitoneal injection of ketamine (80 mg/kg) and xylazine (10 mg/kg). The spinal cord was exposed at the T9-T10 level, and, after laminectomy, animals were injected with B24 (1% aqueous solution) or saline solution using a Hamilton syringe held via a micromanipulator. The solutions were delivered at distances of 500 μm, and two injections of 0.5 μl each were made at each interval, for a total dose of 3 μl. After injection, the muscles were sutured and the skin was closed with wound clips. Rats were treated daily with analgesic (carprofen, 5 mg/kg) and antibiotic (enrofloxacin, 5 mg/kg). 3 days after surgery (for toxicity tests) or 1 month after surgery (nervous regeneration tests) animals were sacrificed by transcardial perfusion with 4% paraformaldehyde. Spinal cords were removed, embedded in OCT, frozen and sliced into 16 μm thick longitudinal sections. For immunofluorescence analysis slices were permeabilized and blocked with PBS/0.3% TritonX-100/10% Normal Goat Serum (NGS) for 1 hour at room temperature. […]

[2] = tested on: human Neural Stem Cells (hNSCs); assay: Live/Dead cell imaging (calcein AM / ethidium homodimer); format: cell-based; conditions: cells cultured for 10 days
Protocol: In vitro tests were performed following a previously adopted methodology (5). Briefly, cells (at a concentration of 6×10^4 cells/cm^2) were seeded on the top-surface of each assembled scaffold previously assembled into 96 multiwells. Initially, cells were cultured with basal medium supplemented with βFGF (10 ng/ml), added to enhance neuronal progeny differentiation. At 3 days in vitro (DIV), βFGF medium was replaced with Leukemia Inhibitory Factor (LIF, Chemicon) (20 ng/ml) and Brain Derived Neurotrophic Factor (BDNF, Peprotech) (20 ng/ml). Fresh medium was added every three days. Positive and negative controls consisted of CULTREX-BME® substrate (R&D systems) (1:100 dilution in basal medium) and untreated bottom well surfaces respectively.
Live/Dead cell imaging (MolecularProbes) was obtained by incubating cells cultured for 10 days with a staining solution containing 2.0 μM calcein AM and 4.0 μM ethidium homodimer in PBS at 37° C. for 60 min and visualized by inverted fluorescence microscope (Zeiss).

spinal cord of rats [3] = assay: In vivo nervous regeneration test, spinal cord injections, 1 month; conditions: one month after injections
Protocol: as §1
Female Sprague-Dawley rats weighting 200-250 gr (Charles River Laboratories) were divided into two groups: 1) animals receiving injections of saline solution (control group, n=3) and 2) animals treated with B24 (n=3). In the case of long term observations (1 month) similar injections of B24 were used (n=2). Rats were anesthetized with an intraperitoneal injection of ketamine (80 mg/kg) and xylazine (10 mg/kg). The spinal cord was exposed at the T9-T10 level, and, after laminectomy, animals were injected with B24 (1% aqueous solution) or saline solution using a Hamilton syringe held via a micromanipulator. The solutions were delivered at distances of 500 μm, and two injections of 0.5 μl each were made at each interval, for a total dose of 3 μl. After injection, the muscles were sutured and the skin was closed with wound clips. […]

C[C@H](NC(=O)CNC(=O)CNC(=O)CNC(=O)CCCC[C@@H]1SC[C@@H]2NC(=O)N[C@@H]21)C(=O)N[C@@H](Cc1ccccc1)C(=O)N[C@@H](C)C(=O)N[C@@H](CO)C(=O)N[C@H](C(=O)N[C@@H](CCCCN)C(=O)N[C@H](C(N)=O)[C@@H](C)O)[C@@H](C)O [peptide B24] (Biotin-GGGAFASTKT-NH2)
apoptotic cells (Tunel) (spinal cord of rats [1]): negligible number | infiltrated macrophages (CD68) (spinal cord of rats [1]): negligible number | neurofilament H dephosphorilated (degenerating) nervous fibers (spinal cord of rats [1]): equally present in saline-injected and in B24-treated animals | live/dead cell imaging [2]: distributed throughout the gel top surface; also recorded: a layer of widely branched cells | chronic inflammation in the spinal cord (spinal cord of rats [3]): did not exert any chronic inflammation
